Laboratory results as given in patent US11149018B2, “Substituted N-arylethyl-2-aminoquinoline-4-carboxamides and use thereof” (Bayer Aktiengesellschaft, priority 2017, dated 2021).

target: FP receptor (Homo sapiens (Human), UniProt P43088); assay: In vitro test of inhibition of human FP receptor activity (PGF2α-induced calcium flux in FP-expressing CHEM1 cells); format: cell-based; conditions: PGF2α 2 nM, some mean values of multiple determinations
In short: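 FP antagonism in FP-expressing CHEM1 cells loaded with Fluo-8. Compound preincubated 10 min at 37° C, then receptor stimulated with 2 nM (final) PGF2α in calcium-free Tyrode with 2 mM CaCl2.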

FP receptor, sequence (P43088 whole entry): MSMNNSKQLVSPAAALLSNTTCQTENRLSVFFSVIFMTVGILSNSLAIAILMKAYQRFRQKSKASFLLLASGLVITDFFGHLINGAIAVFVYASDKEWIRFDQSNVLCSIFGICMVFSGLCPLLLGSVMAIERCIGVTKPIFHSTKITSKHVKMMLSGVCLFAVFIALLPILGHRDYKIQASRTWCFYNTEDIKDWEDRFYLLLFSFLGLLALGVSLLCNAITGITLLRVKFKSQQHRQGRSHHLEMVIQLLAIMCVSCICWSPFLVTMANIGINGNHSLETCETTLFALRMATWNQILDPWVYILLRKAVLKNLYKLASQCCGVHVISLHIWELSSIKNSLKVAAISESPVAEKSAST

Which IC50 does the source give for `Cc1c(N2CCCC(F)C2)nc2ccc(Br)cc2c1C(=O)NCC(CCC(=O)O)c1ccccc1Cl` (single isomer, unassigned; (+)) [Example 188, (+)-5-[({6-Bromo-2-[3-fluoropiperidin-1-yl]-3-methylquinolin-4-yl}carbonyl)amino]-4-(2-chlorophenyl)pentanoic acid] here?
The IC50 was 6.1 nM.

With `COC1CN(c2nc3ccc(Br)cc3c(C(=O)NCC(CCC(=O)O)c3ccccc3Cl)c2C)C1` (racemic) [Example 92, (+/−)-5-({[6-Bromo-2-(3-methoxyazetidin-1-yl)-3-methylquinolin-4-yl]carbonyl}amino)-4-(2-chlorophenyl)pentanoic acid] as the compound, how does the IC50 read?
The IC50 was 390 nM.

How did the IC50 turn out when `Cc1c(N2CCCC(F)(F)C2)nc2ccc(Br)cc2c1C(=O)NCC(CCC(=O)O)c1c(Cl)cccc1Cl` (single isomer, unassigned; (+)) [Example 266, (+)-5-({[6-Bromo-2-(3,3-difluoropiperidin-1-yl)-3-methylquinolin-4-yl]carbonyl}amino)-4-(2,6-dichlorophenyl)pentanoic acid] was run?
The IC50 was 37 nM.

For `[2H]C1([2H])N(c2nc3ccc(Br)cc3c(C(=O)NCC(CCC(=O)O)c3c(F)ccc(F)c3Cl)c2C)C([2H])([2H])C([2H])([2H])C1([2H])[2H]` (single isomer, unassigned; (+)) [Example 281, (+)-5-[({6-Bromo-3-methyl-2-[(^2H8)pyrrolidin-1-yl]quinolin-4-yl}carbonyl)amino]-4-(2-chloro-3,6-difluorophenyl)pentanoic acid], which IC50 is on record?
The IC50 was 80 nM.

For `Cc1c(N2CCCC(C(F)F)C2)nc2ccc(Br)cc2c1C(=O)NCC(CCC(=O)O)c1ccccc1Cl` (stereo not shown) [Example 64, 5-[({6-Bromo-2-[3-(difluoromethyl)piperidin-1-yl]-3-methylquinolin-4-yl}carbonyl)amino]-4-(2-chlorophenyl)pentanoic acid], which IC50 is on record?
The IC50 was 9.8 nM.

With `Cc1c(N2CCCCCC2)nc2ccc(Br)cc2c1C(=O)NCC(CCC(=O)O)c1ccccc1C(F)(F)F` (racemic) [Example 120, (+/−)-5-({[2-(Azepan-1-yl)-6-bromo-3-methylquinolin-4-yl]carbonyl}amino)-4-[2-(trifluoromethyl)phenyl]pentanoic acid] as the compound, how does the IC50 read?
Its IC50 is 11 nM.

Which IC50 does the source give for `CCC1CCCN(c2nc3ccc(Br)cc3c(C(=O)NCC(CCC(=O)O)c3c(Cl)ccc(Cl)c3Cl)c2C)C1` (stereo not shown) [Example 181, 5-[({6-Bromo-2-[3-ethylpiperidin-1-yl]-3-methylquinolin-4-yl}carbonyl)amino]-4-(2,3,6-trichlorophenyl)pentanoic acid] here?
Its IC50 is 6.6 nM.

Which IC50 does the source give for `Cc1ccccc1C(CCC(=O)O)CNC(=O)c1c(C)c(N2CCCCC2)nc2ccc(Br)cc12` (racemic) [Example 242, (+/−)-5-({[6-Bromo-3-methyl-2-(piperidin-1-yl)quinolin-4-yl]carbonyl}amino)-4-(2-methylphenyl)pentanoic acid] here?
Its IC50 is 7.1 nM.

How did the IC50 turn out when `Cc1c(N2CCCO2)nc2ccc(Br)cc2c1C(=O)NCC(CCC(=O)O)c1ccccc1Cl` (single isomer, unassigned; (+)) [Example 40, (+)-5-({[6-Bromo-3-methyl-2-(1,2-oxazolidin-2-yl)quinolin-4-yl]carbonyl}amino)-4-(2-chlorophenyl)pentanoic acid] was run?
The IC50 was 62 nM.

How did the IC50 turn out when `Cc1c(N2CCCC2)nc2ccc(Br)cc2c1C(=O)NCC(CCC(=O)O)c1ccccc1OC(F)(F)F` (single isomer, unassigned; (-)) [Example 130, (−)-5-({[6-Bromo-3-methyl-2-(pyrrolidin-1-yl)quinolin-4-yl]carbonyl}amino)-4-[2-(trifluoromethoxy)phenyl]pentanoic acid] was run?
Its IC50 is 2.6 nM.

`Cc1c(N2CC(C)CC(C)C2)nc2ccc(Br)cc2c1C(=O)NCC(CCC(=O)O)c1ccccc1Cl` (stereo not shown) [Example 63, 5-[({6-Bromo-2-[3,5-dimethylpiperidin-1-yl]-3-methylquinolin-4-yl}carbonyl)amino]-4-(2-chlorophenyl)pentanoic acid] was tested. Which IC50 did it give?
Its IC50 is 7.3 nM.

Which IC50 does the source give for `Cc1c(N2CCCC(F)(F)C2)nc2ccc(Br)cc2c1C(=O)NCC(CCC(=O)O)c1ccccc1C(F)(F)F` (single isomer, unassigned; (+)) [Example 119, (+)-5-({[6-Bromo-2-(3,3-difluoropiperidin-1-yl)-3-methylquinolin-4-yl]carbonyl}amino)-4-[2-(trifluoromethyl)phenyl]pentanoic acid] here?
Its IC50 is 14 nM.

`COC1CCCN(c2nc3ccc(Br)cc3c(C(=O)NCC(CCC(=O)O)c3cc(F)ccc3Cl)c2C)C1` (stereo not shown) [Example 19, 5-[({6-Bromo-2-[3-methoxypiperidin-1-yl]-3-methylquinolin-4-yl}carbonyl)amino]-4-(2-chloro-5-fluorophenyl)pentanoic acid] was tested. Which IC50 did it give?
Its IC50 is 130 nM.

Which IC50 does the source give for `Cc1c(N2CCSCC2)nc2ccc(Br)cc2c1C(=O)NCC(CCC(=O)O)c1ccccc1Cl` (single isomer, unassigned; (+)) [Example 26, (+)-5-({[6-Bromo-3-methyl-2-(thiomorpholin-4-yl)quinolin-4-yl]carbonyl}amino)-4-(2-chlorophenyl)pentanoic acid] here?
The IC50 was 21 nM.

With `Cc1c(N2CCCC(F)(F)C2)nc2ccc(Br)cc2c1C(=O)NCC(CCC(=O)O)c1cc(F)ccc1F` (single isomer, unassigned; (-)) [Example 262, (−)-5-({[6-Bromo-2-(3,3-difluoropiperidin-1-yl)-3-methylquinolin-4-yl]carbonyl}amino)-4-(2,5-difluorophenyl)pentanoic acid] as the compound, how does the IC50 read?
Its IC50 is 18 nM.

How did the IC50 turn out when `Cc1c(N2CCCC(F)(F)C2)nc2ccc(Br)cc2c1C(=O)NCC(CCC(=O)O)c1c(F)ccc(F)c1Cl` (racemic) [Example 155, (+/−)-5-({[6-Bromo-2-(3,3-difluoropiperidin-1-yl)-3-methylquinolin-4-yl]carbonyl}amino)-4-(2-chloro-3,6-difluorophenyl)pentanoic acid] was run?
The IC50 was 3 nM.

How did the IC50 turn out when `[2H]C1([2H])N(c2nc3ccc(Br)cc3c(C(=O)NCC(CCC(=O)O)c3ccccc3OC(F)(F)F)c2C)C([2H])([2H])C([2H])([2H])C1([2H])[2H]` (single isomer, unassigned; (+)) [Example 279, (+)-5-[({6-Bromo-3-methyl-2-[(^2H8)pyrrolidin-1-yl]quinolin-4-yl}carbonyl)amino]-4-[2-(trifluoromethyl)phenyl]pentanoic acid] was run?
The IC50 was 11 nM.

How did the IC50 turn out when `Cc1c(N2CCCC2)nc2ccc(Br)cc2c1C(=O)NCC(CCC(=O)O)c1cc(F)ccc1F` (single isomer, unassigned; (-)) [Example 260, (−)-5-({[6-Bromo-3-methyl-2-(pyrrolidin-1-yl)quinolin-4-yl]carbonyl}amino)-4-(2,5-difluorophenyl)pentanoic acid] was run?
The IC50 was 29 nM.

How did the IC50 turn out when `CCC1CCCN(c2nc3ccc(Br)cc3c(C(=O)NCC(CCC(=O)O)c3ccccc3Cl)c2C)C1` (single isomer, unassigned; (+)) [Example 61, (+)-5-[({6-Bromo-2-[3-ethylpiperidin-1-yl]-3-methylquinolin-4-yl}carbonyl)amino]-4-(2-chlorophenyl)pentanoic acid] was run?
Its IC50 is 0.83 nM.

Which IC50 does the source give for `Cc1c(N2CCC(O)C2)nc2ccc(Br)cc2c1C(=O)NCC(CCC(=O)O)c1cc(F)ccc1Cl` (stereo not shown) [Example 16, 5-[({6-Bromo-2-[3-hydroxypyrrolidin-1-yl]-3-methylquinolin-4-yl}carbonyl)amino]-4-(2-chloro-5-fluorophenyl)pentanoic acid] here?
Its IC50 is 290 nM.

With `Cc1c(N2C[C@@H](F)[C@@H](F)C2)nc2ccc(Br)cc2c1C(=O)NCC(CCC(=O)O)c1ccccc1Cl` (mixture of isomers) [Example 70, (+/−)-5-[({6-Bromo-2-[cis-3,4-difluoropyrrolidin-1-yl]-3-methylquinolin-4-yl}carbonyl)amino]-4-(2-chlorophenyl)pentanoic acid] as the compound, how does the IC50 read?
Its IC50 is 16 nM.

For `Cc1c(N2CCCCC2)nc2ccc(Br)cc2c1C(=O)NCC(CCC(=O)O)c1c(Cl)ccc(F)c1F` (racemic) [Example 144, (+/−)-5-({[6-Bromo-3-methyl-2-(piperidin-1-yl)quinolin-4-yl]carbonyl}amino)-4-(6-chloro-2,3-difluorophenyl)pentanoic acid], which IC50 is on record?
The IC50 was 2.2 nM.

For `Cc1ccccc1C(CCC(=O)O)CNC(=O)c1c(C)c(N2CCCC2)nc2ccc(Br)cc12` (single isomer, unassigned; (-)) [Example 234, (−)-5-({[6-Bromo-3-methyl-2-(pyrrolidin-1-yl)quinolin-4-yl]carbonyl}amino)-4-(2-methylphenyl)pentanoic acid], which IC50 is on record?
Its IC50 is 8.9 nM.

With `Cc1c(N2CCCC(F)(F)C2)nc2ccc(Br)cc2c1C(=O)NCC(CCC(=O)O)c1c(F)cccc1F` (racemic) [Example 250, (+/−)-5-({[6-Bromo-2-(3,3-difluoropiperidin-1-yl)-3-methylquinolin-4-yl]carbonyl}amino)-4-(2,6-difluorophenyl)pentanoic acid] as the compound, how does the IC50 read?
The IC50 was 20 nM.

Which IC50 does the source give for `Cc1c(N2CCCC(F)C2)nc2ccc(Br)cc2c1C(=O)NCC(CCC(=O)O)c1ccccc1C(F)(F)F` (single isomer, unassigned) [Example 191, 5-[({6-Bromo-2-[3-fluoropiperidin-1-yl]-3-methylquinolin-4-yl}carbonyl)amino]-4-[2-(trifluoromethyl)phenyl]pentanoic acid] here?
Its IC50 is 4.1 nM.

`Cc1c(N2CCSCC2)nc2ccc(Br)cc2c1C(=O)NCC(CCC(=O)O)c1ccccc1Cl` (single isomer, unassigned; (-)) [Example 27, (−)-5-({[6-Bromo-3-methyl-2-(thiomorpholin-4-yl)quinolin-4-yl]carbonyl}amino)-4-(2-chlorophenyl)pentanoic acid] was tested. Which IC50 did it give?
Its IC50 is 14 nM.

How did the IC50 turn out when `Cc1c(N2CCCC(C)(C)C2)nc2ccc(Br)cc2c1C(=O)NCC(CCC(=O)O)c1ccccc1Cl` (racemic) [Example 42, (+/−)-5-({[6-Bromo-2-(3,3-dimethylpiperidin-1-yl)-3-methylquinolin-4-yl]carbonyl}amino)-4-(2-chlorophenyl)pentanoic acid] was run?
Its IC50 is 130 nM.

With `CCC1CCCN(c2nc3ccc(Br)cc3c(C(=O)NCC(CCC(=O)O)c3ccccc3C(F)(F)F)c2C)C1` (single isomer, unassigned; (+)) [Example 193, (+)-5-[({6-Bromo-2-[3-ethylpiperidin-1-yl]-3-methylquinolin-4-yl}carbonyl)amino]-4-[2-(trifluoromethyl)phenyl]pentanoic acid] as the compound, how does the IC50 read?
The IC50 was 0.62 nM.
